Data as given in US9079859B2, “Synthetic lethal targeting of glucose transport” (AUCKLAND UNISERVICES LIMITED, priority 2011, dated 2015).

Columns and labels:
Type in all cases: cell-based
cells with wild-type VHL = assay: Glycolysis (lactate, extracellular acidification), wild-type VHL cells; details: lactate and extracellular acidification
Method: HIF is important to adapting to low oxygen conditions through the transcription of many genes, including those involved in glucose metabolism. It was hypothesized that STF-31 might inhibit metabolic pathways, leading to necrotic cell death. To examine whether this compound alters glycolysis, intracellular lactate, which is rapidly converted from the glycolysis end product pyruvate, and extracellular acidification were measured. Baseline levels of glycolysis were lower in wild-type VHL cells compared to VHL-deficient cells (FIGS. 2, A and B), likely a result of the constitutive expression of HIF and subsequent overexpression of glucose transporters and glycolytic enzymes in the latter.

[1] = system: VHL-deficient and wild-type VHL cells; assay: Oxygen consumption
Method: Oxygen Consumption. Following treatment with vehicle or drug, cells were trypsinized, suspended at 5 million cells per ml in DMEM+10% FCS, and oxygen consumption was measured in 0.5 ml volume using an Oxytherm electrode unit (Hansatech).

ACHN shVHL = assay: RCC panel sensitivity (Table 2); details: VHL silenced
RCC4 = assay: RCC panel sensitivity (Table 2); details: RCC4, VHL mutant
p53 = assay: DNA damage response (p53, phospho-p53 Western blot); details: RCC4 and RCC4/VHL; 1.25, 2.5 and 5 μM
RCC4 cells = assay: Clonogenic survival, RCC4; details: STF-31 5 μM, media replaced, grown for a total of 10 days (FIG. 1D)
Method: Cell Viability Assays. For 2,3-bis[2-methoxy-4-nitro-5-sulfophenyl]-2H-tetrazolium-5-carboxanilide (XTT) assays, five thousand cells were plated in 96-well plates. The next day, vehicle (DMSO) or drug was added by serial dilution. Four days later, media were aspirated, XTT solution (0.3 mg/ml of XTT (Sigma), […] N-methyl dibenxopyrazine methyl sulfate (Sigma) in phenol red-free media) was added, and the plates were incubated at 37° C. for 1-2 hours. Metabolism of XTT was quantified by measuring the absorbance at 450 nm. IC50s were calculated using linear interpolation. For clonogenic survival assays, three hundred cells were plated per 60 mm tissue culture dish. […] Colonies were fixed and stained with crystal violet (0.1% crystal violet in 95% ethanol). All conditions were measured in triplicate and each experiment was done in duplicate or triplicate. To determine necrosis, cells were treated with drug for a given time point. Media and cells were collected, centrifugated, and resuspended in 0.4% trypan blue (Invitrogen). Live and dead cells were counted on a hematocytometer.

UMRC6/VHL = assay: RCC panel sensitivity (Table 2); details: VHL wild-type
Caki-1 = assay: RCC panel sensitivity (Table 2); details: Caki-1, VHL wild-type
ACHN shVHL cells = assay: Clonogenic survival, ACHN with shRNA to VHL; details: clonogenic survival (FIG. 1E); only the VHL-silenced cells
Method: (§1) Cell Viability Assays. For 2,3-bis[2-methoxy-4-nitro-5-sulfophenyl]-2H-tetrazolium-5-carboxanilide (XTT) assays, five thousand cells were plated in 96-well plates. The next day, vehicle (DMSO) or drug was added by serial dilution. Four days later, media were aspirated, XTT solution (0.3 mg/ml of XTT (Sigma), […] N-methyl dibenxopyrazine methyl sulfate (Sigma) in phenol red-free media) was added, and the plates were incubated at 37° C. for 1-2 hours. Metabolism of XTT was quantified by measuring the absorbance at 450 nm. IC50s were calculated using linear interpolation. For clonogenic survival assays, three hundred cells were plated per 60 mm tissue culture dish. The cells were allowed to attach overnight and then treated with vehicle or drug for 14 days. Colonies were fixed and stained with crystal violet (0.1% crystal violet in 95% ethanol). All conditions were measured in triplicate and each experiment was done in duplicate or triplicate. To determine necrosis, cells were treated with drug for a given time point. Media and cells were collected, centrifugated, and resuspended in 0.4% trypan blue (Invitrogen). Live and dead cells were counted on a hematocytometer.

hexokinase = assay: Hexokinase activity in whole-cell lysates, RCC4; details: only after three days of treatment
From the text: We then examined whether this decrease in glycolysis in response to STF-31 was due to a decrease in glucose uptake or whether STF-31 inhibited a particular glycolytic enzyme. To test this, we measured glucose uptake using 2-deoxy-D-[^3H] glucose, a non-hydrolyzable, radioactive glucose analog. STF-31 impaired glucose uptake in RCC4 and 786-O cells but not in the matched isogenic cells expressing wild-type VHL (FIGS. 2B, 6A, and 6C). RCC4/VHL cells had lower baseline levels of glucose uptake compared to RCC4 cells and were unaffected by treatment with STF-31. […] Because the phosphorylation of glucose to glucose-6-phosphate is important for preventing glucose efflux from the cell, we asked whether STF-31 might function by inhibiting the phosphorylation of glucose by hexokinase. […]
Cell Culture and Reagents. […] GLUT1 was detected with anti-GLUT1 antibody from NeoMarkers/LabVision/Fisher. For immunofluorescent studies, GLUT1, GLUT2, and GLUT3 antibodies were purchased from R&D. Pyruvate/lactate levels and hexokinase activity were both measured by fluorometric assay (BioVision and Sigma-Aldrich, respectively). ATP levels were measured by bioluminescence assay (ATP Determination Kit from Molecular Probes/Invitrogen). […]

SN12C = assay: RCC panel sensitivity (Table 2); details: VHL wild-type
GLUT1 = GLUT1 protein levels
From the text: Moreover, the levels of soluble GLUT1 protein were also unaffected by STF-31 (FIG. 8D). […] Active analogs, which selectively kill VHL-deficient cells through glucose uptake, docked within the central channel of GLUT1 (FIG. 3F).

RCC4/VHL cells = assay: Necrotic cell death by trypan blue, RCC4/VHL; details: 5 μM, 3 days
Method: as §1

CC(C)(C)c1ccc(S(=O)(=O)NCc2ccc(C(=O)Nc3cccnc3)cc2)cc1 [STF-31]
glycolysis in cells with wild-type VHL (cells with wild-type VHL): did not alter | oxygen consumption, treated versus not treated cells [1]: no difference | 3-series sensitivity (sensitivity to STF-31) (ACHN shVHL): Yes | 3-series sensitivity (sensitivity to STF-31) (RCC4): Yes | total p53 or phospho-p53 levels (p53): did not increase | RCC4 cells killed following treatment (RCC4 cells): Approximately 80% | 3-series sensitivity (sensitivity to STF-31) (UMRC6/VHL): No | 3-series sensitivity (sensitivity to STF-31) (Caki-1): Yes | sensitivity of ACHN cells with VHL silenced by shRNA (ACHN shVHL cells): sensitive | hexokinase activity in RCC4 cells (hexokinase): inhibited | 3-series sensitivity (sensitivity to STF-31) (SN12C): Yes | levels of soluble GLUT1 protein (GLUT1; soluble and insoluble fractions): unaffected | GLUT1 protein levels (GLUT1; time- or concentration-dependent (1.25-10 μM, 3 days)): did not affect | necrotic cell death of RCC4/VHL cells (RCC4/VHL cells): relatively insensitive
